The values that follow come from ChEMBL document CHEMBL1201862, “PubChem BioAssay data set” (2004).

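Method: 48-hour compound exposure of cells in 96-well plates, five concentrations, linear interpolation of endpoints. GI50 is the concentration that inhibits growth by half.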 Active and inactive are the calls of the source. Rule as the data show it: active = GI50 up to about 1.1 µM and inactive = higher. Where only a bound is given, the exact number is not on record here.

Among the test systems are SK-MEL-28; UACC-257; IGROV-1; M14; OVCAR-8; SR; MDA-MB-231; UO-31; HOP-92; HOP-62; T47D; RPMI-8226; NCI/ADR-RES; SN12C; OVCAR-4; SF-268; MCF7; HCT-116; BT-549; HCT-15.
What all share (experiment): DTP human tumour cell line panel, 48 h

As to `CC[C@@]1(OP(=O)(O)O)C(=O)OCc2c1cc1n(c2=O)Cc2cc3ccccc3nc2-1`, the GI50 is 1.22 µM (inactive) with SK-MEL-28; 0.287 µM (active) in the experiment on UACC-257; 0.311 µM (active) in the experiment with IGROV-1; 0.0776 µM (active) with M14; 0.224 µM (active) in the experiment on OVCAR-8; 0.00274 µM (active) in the experiment with SR. For the same compound, the GI50 in the experiment with MDA-MB-231 is 3.37 µM (inactive); in the experiment on UO-31, 0.0836 µM (active); with HOP-92, 0.447 µM (active); with HOP-62, 0.253 µM (active); in the experiment on T47D it was 0.132 µM (active); with RPMI-8226 it was 0.0718 µM (active). Moreover, the GI50 with NCI/ADR-RES is 0.0718 µM (active); in the experiment with SN12C, 0.0883 µM (active); in the experiment with OVCAR-4, 1.76 µM (inactive); in the experiment on SF-268, 0.0486 µM (active); in the experiment on MCF7, 0.0358 µM (active); with HCT-116 it was 0.157 µM (active). For the same compound, the GI50 is 0.201 µM (active) in the experiment with BT-549 and 0.748 µM in the experiment on HCT-15.
As for `COc1ccc(C(=O)C#Cc2cnc(OC)nc2OC)cc1`, the GI50 with SK-MEL-28 was 1.61 µM (inactive); with UACC-257, 2.09 µM (inactive); in the experiment on IGROV-1, 1.45 µM (inactive); in the experiment with M14, 1.36 µM (inactive); with OVCAR-8 it was 1.56 µM (inactive); in the experiment on SR, 0.0491 µM (active). In addition, the GI50 in the experiment on MDA-MB-231 was 32400 µM (inactive); in the experiment on UO-31, 1.29 µM (inactive); in the experiment with HOP-92 it was 1.76 µM (inactive); in the experiment with HOP-62 it was 17 µM (inactive); with T47D it was 1.89 µM (inactive); in the experiment with RPMI-8226, 1.93 µM (inactive). The GI50 was 1.82 µM (inactive) with NCI/ADR-RES; 1.19 µM (inactive) in the experiment on SN12C; 6.5 µM (inactive) in the experiment on OVCAR-4; 2.74 µM (inactive) in the experiment with SF-268; 0.778 µM (active) in the experiment with MCF7; 1.32 µM (inactive) in the experiment on HCT-116. Also, the figures for the GI50 with BT-549 and with HCT-15 were 1.6 µM (inactive) and 1.02 µM, respectively.
Turning to `CN1CC=C(OP(=O)(NCc2ccccc2)N(CCCl)CCCl)CC1` (stereo not given), the GI50 with SK-MEL-28 was 95.3 µM (inactive); with UACC-257 it was 70.5 µM (inactive); in the experiment on IGROV-1 it was > 100 µM (inactive); in the experiment with M14, > 100 µM (inactive); in the experiment on OVCAR-8 it was > 100 µM (inactive); with SR, > 100 µM (inactive). For the same compound, the GI50 in the experiment with MDA-MB-231, with UO-31, with HOP-92, in the experiment with HOP-62, in the experiment with T47D and with RPMI-8226 was > 100 µM (inactive) in each case. Further, the GI50 in the experiment on NCI/ADR-RES, with SN12C, in the experiment on OVCAR-4, in the experiment with SF-268, in the experiment with MCF7 and in the experiment on HCT-116 was > 100 µM (inactive) in each case. Further, the GI50 was > 100 µM (inactive) in the experiment on BT-549 and more than 100 µM in the experiment with HCT-15.

For orientation: GI50 means the concentration at which growth is held to half of that of the control.
